A short description of this data set: Stability of prazole starting materials in phosphate buffer media at pH 6.8 and 8.0. The procedure: Phosphate buffer media at pH 6.8 and 8.0 containing 0.5% w/w of sodium dodecyl sulfate were prepared, added into dissolution cups, with 1000 mL per cup. 0.5 mg of each of ilaprazole, omeprazole magnesium, esomeprazole magnesium, rabeprazole sodium, pantoprazole and lansoprazole was weighed and added into the dissolution cups, stirred at 150 rpm by a paddle method to ensure that the prazole starting materials sank into the media and dissolved therein. 5 mL of each of the samples was collected at 15 min, 30 min, 45 min and 60 min respectively, and added to 20 mL of sodium hydroxide stabilization medium, and then the volume was made up to 50 mL with the mobile phase.
The collected sample content in the media was determined according to the determination method of omeprazole magnesium, esomeprazole magnesium, rabeprazole sodium, pantoprazole sodium and lansoprazole in the Chinese Pharmacopoeia (Volume II, 2015 Edition) so as to determine the stability of the prazoles in the media at pH 6.8 and 8.0.

The mark [1] stands for this setting: buffer, 0.25 h, 0.5 µg/mL, pH 6.8.
[2] abbreviates: buffer, 0.25 h, 0.5 µg/mL, pH 8.
Setting [3] is: buffer, 0.5 h, 0.5 µg/mL, pH 6.8.
The mark [4] stands for this setting: buffer, 0.75 h, 0.5 µg/mL, pH 6.8.
The mark [5] stands for this setting: buffer, 0.75 h, 0.5 µg/mL, pH 8.

`COc1ccc2[n-]c([S+]([O-])Cc3ncc(C)c(OC)c3C)nc2c1.COc1ccc2[n-]c([S+]([O-])Cc3ncc(C)c(OC)c3C)nc2c1.[Mg+2]` (stereo not drawn) [Esomeprazole magnesium, esomeprazole magnesium]: the “remaining amount after the degradation” value stood at 89.6% (medium at pH 6.8, 15 min); 70.9% (medium at pH 6.8, 30 min); 56.0% (medium at pH 6.8, 45 min); 41.4% (medium at pH 6.8, 60 min); 99.2% (medium at pH 8.0, 15 min); 98.6% (medium at pH 8.0, 30 min). Also, the “remaining amount after the degradation” value (medium at pH 8.0, 45 min) is listed as 97.6% and the “remaining amount after the degradation” value (medium at pH 8.0, 60 min) was 96.4%. The “stability in medium at pH 6.8 compared between prazoles” value (pH 6.8) was “the best”.
Consider `COc1ccnc(C[S+]([O-])c2nc3cc(-n4cccc4)ccc3[nH]2)c1C` (stereo not drawn) [Ilaprazole, ilaprazole], for which the “remaining amount after the degradation” value reads like this: (buffer, 0 h, 0.5 µg/mL, pH 6.8) 100.0%; (buffer, 0 h, 0.5 µg/mL, pH 8) 100.0%; under setting [1], 59.7%; under setting [2], 94.3%; under setting [3], 42.7%; (buffer, 0.5 h, 0.5 µg/mL, pH 8) 91.5%. The “remaining amount after the degradation” value under setting [4] came to 29.4%; the “remaining amount after the degradation” value under setting [5] was determined as 88.6%; the “remaining amount after the degradation” value (buffer, 1 h, 0.5 µg/mL, pH 6.8) was determined as 20.7%; the “remaining amount after the degradation” value (buffer, 1 h, 0.5 µg/mL, pH 8) is reported as 84.6%. Besides, the “stability in medium at pH 6.8 compared between prazoles” value (pH 6.8) is “the worst”.
For `Cc1c(OCC(F)(F)F)ccnc1C[S+]([O-])c1nc2ccccc2[nH]1` (stereo not drawn) [Lansoprazole, lansoprazole], the “remaining amount after the degradation” value runs as follows: (buffer, 0 h, 0.5 µg/mL, pH 6.8) 100.0%; (buffer, 0 h, 0.5 µg/mL, pH 8) 100.0%; under setting [1], 85.7%; under setting [2], 98.7%; under setting [3], 70.2%; (buffer, 0.5 h, 0.5 µg/mL, pH 8) 96.2%. Moreover, the “remaining amount after the degradation” value is, setting by setting: under setting [4], 53.6%; under setting [5], 95.3%; (buffer, 1 h, 0.5 µg/mL, pH 6.8) 38.6%; (buffer, 1 h, 0.5 µg/mL, pH 8) 93.5%.
`COc1ccc2[n-]c([S+]([O-])Cc3ncc(C)c(OC)c3C)nc2c1.COc1ccc2[n-]c([S+]([O-])Cc3ncc(C)c(OC)c3C)nc2c1.[Mg+2]` (stereo not drawn) [Omeprazole magnesium, omeprazole magnesium]: the “remaining amount after the degradation” value by setting is: (buffer, 0 h, pH 6.8) 100.0%; (buffer, 0 h, pH 8) 100.0%; (buffer, 0.25 h, pH 6.8) 81.2%; (buffer, 0.25 h, pH 8) 98.2%; (buffer, 0.5 h, pH 6.8) 66.7%; (buffer, 0.5 h, pH 8) 95.4%. For the same molecule, the “remaining amount after the degradation” value stood at 47.4% (buffer, 0.75 h, pH 6.8); 96.3% (buffer, 0.75 h, pH 8); 29.2% (buffer, 1 h, pH 6.8); 91.2% (buffer, 1 h, pH 8).
Take `COc1ccnc(C[S+]([O-])c2nc3ccc(OC(F)F)cc3[nH]2)c1OC` (stereo not drawn) [Pantoprazole sodium, pantoprazole sodium]: the “remaining amount after the degradation” value by setting is: (buffer, 0 h, 0.5 µg/mL, pH 6.8) 100.0%; (buffer, 0 h, 0.5 µg/mL, pH 8) 100.0%; under setting [1], 83.6%; under setting [2], 98.6%; under setting [3], 65.9%; (buffer, 0.5 h, 0.5 µg/mL, pH 8) 95.9%. In addition, the “remaining amount after the degradation” value reads like this: under setting [4], 50.2%; under setting [5], 92.2%; (buffer, 1 h, 0.5 µg/mL, pH 6.8) 35.4%; (buffer, 1 h, 0.5 µg/mL, pH 8) 91.4%.
For the molecule `COCCCOc1ccnc(C[S+]([O-])c2nc3ccccc3[nH]2)c1C` (stereo not drawn) [Rabeprazole sodium, rabeprazole sodium], the “remaining amount after the degradation” value reads like this: (buffer, 0 h, 0.5 µg/mL, pH 6.8) 100.0%; (buffer, 0 h, 0.5 µg/mL, pH 8) 100.0%; under setting [1], 70.3%; under setting [2], 97.3%; under setting [3], 51.5%; (buffer, 0.5 h, 0.5 µg/mL, pH 8) 93.5%. Besides, the “remaining amount after the degradation” value by setting is: under setting [4], 38.6%; under setting [5], 90.6%; (buffer, 1 h, 0.5 µg/mL, pH 6.8) 24.6%; (buffer, 1 h, 0.5 µg/mL, pH 8) 88.5%.

The record behind these values is US20240033224A1, “ENTERIC-COATED PELLET, METHOD FOR PREPARING SAME AND FORMULATION COMPRISING SAME” (LIVZON PHARMACEUTICAL GROUP INC., priority 2020, published 2024).
